From ChEMBL document CHEMBL5137116, “Discovery of Cyclic Diarylheptanoids as Inhibitors against Influenza A Virus from the Roots of Casuarina equisetifolia” (J Nat Prod, 2022)

How the values were obtained:
[1] = Selectivity index, ratio of CC50 for cytotoxicity against dog MDCK cells to IC50 for antiviral activity against Influenza A virus A/WSN/33(H1N1) infected in HEK293T cells; assay type: toxicity, cell-based; settings: read-out: Selectivity Index
[2] = Cytotoxicity against dog MDCK cells by MTT assay; assay type: toxicity, cell-based, Canis lupus familiaris
Influenza A virus [3] = test: Antiviral activity against Influenza A virus A/WSN/33(H1N1) infected in HEK293T cells by Gaussia luciferase assay; assay type: functional, organism-based; settings: HEK-293T
Influenza A virus [4] = test: Antiviral activity against Influenza A virus A/WSN/33(H1N1) infected in HEK293T cells assessed as inhibition of viral replication at 50 uM by Gaussia luciferase assay; assay type: functional; settings: HEK-293T

SMILES: O=C1/C=C/CCc2ccc(O)c(c2)-c2cc(ccc2O)C[C@H]1O
- selectivity ratio [1]: > 12
- CC50 at 48 h [2]: > 100 µM
- IC50 (Influenza A virus [3]): 8.64 µM
- inhibition at 50 µM (Influenza A virus [4]): 60%
